Entries after “also recorded” stand apart in the source; their conditions may differ. Where two headings read alike, the source gives them in different places. Marks after values point to notes of the source that are not given here.
Legend:
PC-3M (Prostate) = assay: Antiproliferative assay, PC-3M; format: cell-based, human; settings: 3 d exposure, mean ± SD, read-out: IC50 for growth inhibition
Description: A human androgen-independent prostate cancer cell line is used to establish subcutaneous and orthotopic models in mice. The human metastatic prostate carcinoma PC-3M is obtained from Dr. I. J. Fidler (MD Anderson Cancer Center, Houston, Tex., USA) and is cultured in Ham's F12K media supplemented with 7% v/v FBS. The PC-3M cell line is the result of isolation from liver metastasis produced in nude mice subsequent to intrasplenic injection of PC-3 cells [ATCC CRL 1435; American Type Culture Collection (Rockville, Md., USA)], and they can grow in Eagle's MEM supplemented with 10% fetal bovine serum, sodium pyruvate, non-essential amino acids, L-glutamine, a two-fold vitamin solution (Gibco Laboratories, Long Island, N.Y.) and penicillin-streptomycin (Flow Laboratories, Rockville, Md.). The PC-3M cell line is hormone-insensitive (that is, it grows in the absence of androgens). […] No normal Y chromosomes can be detected by Q-band analysis.
Antiproliferative assays are performed as previously described (Int. J. Cancer 43, 851-6 (1989)). […] After washing, the dye is eluted with 3% v/v HCl and the optical density measured at 665 nm with a SpectraMax 340 (Bucherer, Basel, Switzerland). IC50 values are determined by a computerized system (SoftPro, Bucherer, Basel, Switzerland) using the formula (OD test−OD start)/(OD control−OD start)×100. […]

[1] = Two-week intravenous toxicity study in mice; format: in vivo, normal female BALB/c mice
Description: In order to assess the sub-chronic intravenous toxicity of epothilone B, a non-GLP two-week i.v. toxicity study in non-tumor bearing, normal female BALB/c mice is conducted, involving analysis of mortality, clinical signs, body weight, food consumption, hematology, clinical biochemistry, urinalysis, and organ weights as well as macro and microscopic examinations. The study is based on two different dosing regiments of epothilone B of 3 mg/kg and 10 mg/kg, respectively, administered on days 1 and 8 (8 animals per group). Half of the animals are killed on day 15 (main group) and necropsy is performed. For the other half (recovery group) a recovery period of 5 weeks is allowed after administration of the second dose before sacrifice and subsequent necropsy on day 43.

[2] = system: human COLO 205 colon tumors; format: in vivo, female BALB/c nude mice; settings: 4 mg/kg, day 32
Description: Female or male BALB/c nu/nu (nude) mice are kept under sterile conditions (10 to 12 mice per Type III cage) with free access to food and water. Mice weigh between 20 and 25 grams at the time of tumor implantation. Tumors are established by subcutaneous injection of cells (minimum 2×10^6 cells in 100 μl PBS or medium) in carrier mice (4-8 mice per cell line). The resulting tumors are serially passaged for a minimum of three consecutive transplantations prior to start of treatment. Tumor fragments (approx. 25 mg) are implanted s.c. into the left flank of animals with a 13-gauge trocar needle while the mice are exposed to Forene (Abbott, Switzerland) anesthesia.
Tumor growth and body weights are monitored once or twice weekly. All treatments are administered intravenously (i.v.) and are initiated when a mean tumor volume of approximately 100 to 250 mm^3 is attained, depending upon the tumor type. Tumor volumes are determined using the formula […] (see Cancer Chemother. Pharmacol. 24:148-154, [1989]). Treatments with epothilone B vary the dose and the frequency of administration. Comparator agents are administered according to previously determined optimal treatment regimens. In addition to presenting changes in tumor volumes over the course of treatment, antitumor activity is expressed as T/C % (mean increase of tumor volumes of treated animals divided by the mean increase of tumor volumes of control animals multiplied by 100). Tumor. regression (%) represents the smallest mean tumor volume compared to the mean tumor volume at the start of treatment, according to the formula Regression (%)=(1−Vend/Vstart)×100(Vend=final mean tumor volume, Vstart=mean tumor volume at the start of treatment. Any animals in which the tumor has reached a size exceeding approximately 1.5 to 2.5 cm^3 are sacrificed. Details can be found below.

[3] = system: A549 non small cell lung tumors; assay: Antitumor activity on A549 tumors, regimen comparison (Example 7); settings: for % Regression / % T/C / Delta % Body Weight / Delta Mean Tumor Vol. (mm^3): day 37
Description: 3-10 million cells are implanted s.c. into the right axillary (lateral) region of outbred athymic (nu/nu) mice, and are allowed to grow until a tumor volume of approximately 100 mm^3 is established. […] Positive controls are carried out with clinical formulations of TAXOL® diluted 6 fold with D5W and administered i.v. 3×/week.
Antitumor activity is expressed as % T/C (comparing Δ tumor volumes for treatment group to vehicle control group) at the end of the experiment. Regressions are calculated using the formula: −(T/T0−1)×100%, where T is the tumor volume for the treatment group at the end of the experiment, and T0 is the tumor volume at the beginning of the experiment. Statistical significance is evaluated using a one-tailed Student's t-test.

[4] = 3 mg/kg i.v. on days 1 and 8, day 15
[5] = 10 mg/kg i.v. on days 1 and 8, day 15
[6] = both dose levels (3 and 10 mg/kg), day 15

For `C/C(=C\c1csc(C)n1)[C@@H]1C[C@@H]2O[C@]2(C)CCC[C@H](C)[C@H](O)[C@@H](C)C(=O)C(C)(C)[C@@H](O)CC(=O)O1` [epothilone B], the IC50 (PC-3M (Prostate)) was 3.82 ± 0.47 nM, the body weight loss ([1]; 3 mg/kg i.v. on days 1 and 8) was “only apparent in the second week” and the “atrophy of the thymus” value [1, 4] was “moderate”. The “number of leukocytes, especially neutrophils and lymphocytes” value [1, 4] was “reduction in the number of leukocytes”, the “sternal bone marrow histology” value [1, 4] was “minimal to slight erythroid and myeloid atrophy” and the “organ weights at the end of the recovery period” value ([1]; 3 mg/kg i.v. on days 1 and 8, day 43) was “comparable to those of control animals”. The “mortalities throughout the treatment period” value ([1]; 3 mg/kg i.v. on days 1 and 8, days 1-14) was “No mortalities”, the “survival of the recovery group” value ([1]; 3 mg/kg i.v. on days 1 and 8, up to day 43) was “all animals of the recovery group survive until the end of the study; also recorded: tolerated without mortality” and the “hematological parameters at the end of the recovery period” value ([1]; 3 mg/kg recovery group, day 43) was “normal for two out of the four animals”. The “survival of the recovery group” value ([1]; 10 mg/kg i.v. on days 1 and 8) was “all animals of the recovery group have to be sacrificed prematurely on day 19; also recorded: death (or sacrifice) of all treated animals”, the “atrophy of the thymus” value [1, 5] was “marked” and the “number of leukocytes, especially neutrophils and lymphocytes” value [1, 5] was “reduction in the number of leukocytes”. For the same compound, the spleen histology [1, 5] was “minimal lymphoid atrophy”, the “sternal bone marrow histology” value [1, 5] was “minimal to slight myeloid hypoplasia” and the “mortalities throughout the treatment period” value ([1]; 10 mg/kg i.v. on days 1 and 8, days 1-14) was “No mortalities”. For the same compound, the body weight loss ([1]; 10 mg/kg i.v. on days 1 and 8, first and second week) was “Body weight loss is observed for all animals”, the clinical chemistry profile ([1]; 3 and 10 mg/kg i.v. on days 1 and 8) was “Only minor changes” and the “intestinal mucosa (small and large intestine) histology” value [1, 6] was “Minimal single cell necrosis”. For the same compound, the organ weights [1, 6] was “pronounced changes in thymus, spleen, and uterus weights”, the T/C ([2]; i.v. every 7 days (days 14, 21, 28)) was “Regressions” and the “% Body Weight Change” value ([2]; i.v. every 7 days) was −18 ± 1%. For the same compound, the Regression ([2]; i.v. every 7 days) was −87%, the “Survival (No. alive/total)” value ([2]; i.v. every 7 days) was 5/7 and the “Δ Body Weight” value ([2]; i.v. every 7 days) was -4.0 ± 0.2 g. The “Δ Tumor Volume (mm^3)” value ([2]; i.v. every 7 days) was −83 ± 7 mm^3, the T/C ([2]; i.v. every 14 days (days 14 and 28)) was “Regressions” and the “% Body Weight Change” value ([2]; i.v. every 14 days) was −4 ± 4%. For the same compound, the Regression ([2]; i.v. every 14 days) was −69%, the “Survival (No. alive/total)” value ([2]; i.v. every 14 days) was 7/7 and the “Δ Body Weight” value ([2]; i.v. every 14 days) was -1.1 ± 1.0 g. For the same compound, the “Δ Tumor Volume (mm^3)” value ([2]; i.v. every 14 days) was −62 ± 7 mm^3, the “% Body Weight Change” value ([2]; i.v. once) was 9 ± 1% and the Regression ([2]; i.v. once) was −66%. The “Survival (No. alive/total)” value ([2]; i.v. once) was 5/7, the T/C ([2]; i.v. once) was “Regressions” and the “Δ Body Weight” value ([2]; i.v. once) was 2.0 ± 0.1 g. For the same compound, the “Δ Tumor Volume (mm^3)” value ([2]; i.v. once) was −58 ± 11 mm^3, the Dead/Total ([3]; 0.5 mg/kg i.v. 5x/week) was 0/8 and the “% Regression” value ([3]; 0.5 mg/kg i.v. 5x/week) was “none”. For the same compound, the “% T/C” value ([3]; 0.5 mg/kg i.v. 5x/week) was 41** %, the “Delta % Body Weight” value ([3]; 0.5 mg/kg i.v. 5x/week) was −23.1% and the “Delta Mean Tumor Vol. (mm^3)” value ([3]; 0.5 mg/kg i.v. 5x/week) was 178 mm^3. The “% T/C” value ([3]; 0.5 mg/kg i.v. 5x/week, listed as Epothilone B) was 41%, the body weight loss ([3]; 0.5 mg/kg, 5×/week) was 23% and the Dead/Total ([3]; 1.5 mg/kg i.v. 3x/week) was 8/8. The Dead/Total ([3]; 1.5 mg/kg i.v. 3x/week, listed as Epothilone B) was “all animals have to be euthanatized”, the body weight loss ([3]; 4 mg/kg administered 1×/week) was 13% and the Dead/Total ([3]; 4 mg/kg i.v. 1x/week) was 0/8. For the same compound, the “% Regression” value ([3]; 4 mg/kg i.v. 1x/week) was “none”, the “% T/C” value ([3]; 4 mg/kg i.v. 1x/week) was 7** % and the “Delta % Body Weight” value ([3]; 4 mg/kg i.v. 1x/week) was −13.2%. The “Delta Mean Tumor Vol. (mm^3)” value ([3]; 4 mg/kg i.v. 1x/week) was 32 mm^3, the “% T/C” value ([3]; 4 mg/kg i.v. 1x/week, listed as Epothilone B) was 7% and the Dead/Total ([3]; 6 mg/kg i.v. once (day 16)) was 0/8. The “% Regression” value ([3]; 6 mg/kg i.v. once (day 16)) was “none”, the “% T/C” value ([3]; 6 mg/kg i.v. once (day 16)) was 41** % and the “Delta % Body Weight” value ([3]; 6 mg/kg i.v. once (day 16)) was “+8.5%”. For the same compound, the “Delta Mean Tumor Vol. (mm^3)” value ([3]; 6 mg/kg i.v. once (day 16)) was 178 mm^3 and the “% T/C” value ([3]; 6 mg/kg i.v. once (day 16), listed as Epothilone B) was 41%.
